The record followed here is ChEMBL document CHEMBL4613277, “Improving the Potency of N-Aryl-2,5-dimethylpyrroles against Multidrug-Resistant and Intracellular Mycobacteria” (ACS Med Chem Lett, 2020).

Each structure is given as a SMILES string. Values after ≈ are worked out from the molar mass of the structure shown.

The subject of one test is Mycobacterium tuberculosis. Nature of the test: Antimycobacterial activity against Mycobacterium bovis BCG. It counts as functional. Particulars: variant bovis BCG.
The compound `Cc1cc(CNCc2ccccc2)c(C)n1-c1cc(Cl)cc(Cl)c1` gave an MIC of 1 µg/mL (≈ 2.78 µM).

Take `Cc1cc(CNCC2CCCCC2)c(C)n1-c1ccc(Cl)cc1`: the MIC stood at 0.125 µg/mL (≈ 0.378 µM).

On to `Cc1cc(CNCc2ccccc2)c(C)n1-c1ccc(F)cc1`, for which the MIC was 0.5 µg/mL (≈ 1.62 µM).

`Cc1cc(CNC2CCCCC2)c(C)n1-c1ccccc1F`: the MIC worked out at 0.5 µg/mL (≈ 1.66 µM).

In turn, `Cc1cc(CN[C@H]2C[C@@H]3CC[C@H]2C3)c(C)n1-c1ccc(Cl)cc1` showed an MIC of 0.25 µg/mL (≈ 0.76 µM).

Take `Cc1cc(CNC2CCCCC2)c(C)n1-c1cc(Cl)cc(Cl)c1`: it took 0.5 µg/mL (≈ 1.42 µM) to inhibit growth (MIC).

The compound `Cc1cc(CNCc2ccccc2)c(C)n1-c1ccc(C(C)C)cc1` had a minimum inhibitory concentration (MIC) of 1 µg/mL (≈ 3.01 µM).

On to `Cc1cc(CNC2CCCCC2)c(C)n1-c1ccccc1C(F)(F)F`, for which the MIC was determined as 2 µg/mL (≈ 5.71 µM).

In turn, `Cc1cc(CNC(C)c2ccccc2)c(C)n1-c1ccc(Cl)cc1` (stereo not given) registered a minimal inhibitory concentration (MIC) of 0.5 µg/mL (≈ 1.48 µM).

For `Cc1cc(CNCc2ccccc2)c(C)n1-c1ccccc1C(F)(F)F`, the MIC worked out at 1 µg/mL (≈ 2.79 µM).

In turn, `Cc1ccc(C)c(-n2c(C)cc(CNC3CCCCC3)c2C)c1` showed an MIC of 0.5 µg/mL (≈ 1.61 µM).

With `Cc1cc(CNC2CCCCC2)c(C)n1-c1ccc(C(C)C)cc1`, inhibition of growth (MIC) required 0.25 µg/mL (≈ 0.77 µM).

`Cc1cc(CNC2CCCCC2)c(C)n1-c1ccc(Cl)cc1`: 0.4 µg/mL (≈ 1.26 µM) was the least that counted as inhibitory (MIC).

Take `Cc1cc(CNC2CCCCC2)c(C)n1-c1ccc(C#N)cc1`: the MIC was determined as 1 µg/mL (≈ 3.25 µM).

As for `Cc1cc(CNCCNc2ccccc2)c(C)n1-c1ccc(Cl)cc1`, it took 1 µg/mL (≈ 2.83 µM) to inhibit growth (MIC).

`Cc1ccc(C)c(-n2c(C)cc(CNCc3ccccc3)c2C)c1` registered an MIC of 2 µg/mL (≈ 6.28 µM).

As to `COc1ccc(-n2c(C)cc(CNC3CCCCC3)c2C)cc1`, the MIC stood at 0.25 µg/mL (≈ 0.8 µM).

As to `Cc1cc(CNCc2ccccc2)c(C)n1-c1ccc(Cl)cc1`, inhibition of growth (MIC) required 0.5 µg/mL (≈ 1.54 µM).

Regarding `Cc1cc(CNC2CCCCC2)c(C)n1-c1ccc(F)cc1`, the MIC worked out at 0.5 µg/mL (≈ 1.66 µM).

The next test has as its system Mycobacterium tuberculosis. Description: Antimycobacterial activity against Mycobacterium bovis BCG assessed as reduction in bacterial growth incubated for 48 hrs by HT-SPOTi assay. The following applies: variant bovis BCG. Type of test: functional.
Consider `Cc1cc(CNCC2CCCCC2)c(C)n1-c1ccc(Cl)cc1`, for which the MIC amounted to 1.95 µg/mL (≈ 5.89 µM).
